In article PMC5725832, “Evaluation of the effect of D-amino acid incorporation into amyloid-reactive peptides” (Journal of Translational Medicine, 2017):

Key:
[1] = Circular dichroism, heparin-induced coil-to-helix transition (ellipticity at 222 nm); assay type: physicochemical; settings: CD, peptide 0.05 mg/mL, 2.9 mL sample, 1 cm path; titration of low molecular weight heparin (enoxaparin) up to 1.5 mg; data collected in triplicate
Protocol: CD spectra were obtained for all peptides (0.05 mg/mL in PBS) using a DSM 1000 CD instrument (Olis Inc., Bogart, Georgia) with a peptide sample volume of 2.9 mL and a 1 cm cuvette path length. Data were collected in triplicate over the 190–250 nm wavelength range with 1 nm increments. Increasing amounts of low molecular weight heparin (Enoxaparin sodium, Sanofi, Bridgewater, NJ) up to 1.5 mg was added to each peptide to induce secondary structure transitions. All data were corrected for background by subtraction of a PBS or PBS with enoxaparin CD spectrum. Mean residue ellipticity [Θ] was calculated according to: Θ *(MW/no. AA)/(10 *conc. *l) where: Θ is ellipticity (millidegrees); MW is the molecular weight of the peptide (3356.8 Da); no. AA, is the number of amino acid residues, (31); conc. is the peptide concentration (mg/mL), and l, is the cuvette path length (cm).

[2] = mouse, in vivo, iv
Protocol: Peptides (20–40 μg) were radiolabeled with iodine-125 (^125I; Perkin Elmer, Waltham, MA) as previously described. Briefly, ~ 2 mCi of ^125I in buffered sodium phosphate pH 7.6 was mixed with peptide and 20 μg chloramine T in a volume of 10 µL water for 1 min. The reaction was quenched using 20 μg sodium metabisulphite in 10 µL water. Radiolabeled product was separated from free isotope by gel filtration chromatography using a Sephadex G-25 size-exclusion matrix (PD10; GE Healthcare) equilibrated with 0.1% gelatin/PBS. Fractions were collected manually and radioactivity in each measured by gamma counting after which the peak fractions were pooled. Radiochemical purity was assessed qualitatively by estimating the free radioiodide from phosphor images (Cyclone Storage Phosphor System, PerkinElmer, Shelton, CT) of SDS-PAGE gels. SPECT/CT imaging was performed as described previously. […] Low energy (^125I; 25–45 keV) gamma photons were detected at each of 60, 16-s projections with 90 mm of bed travel in 1.5 revolutions. […] A small piece of each tissue was weighed in tared vials and radioactivity quantified using an automated gamma counter (1480 Wizard 3 Gamma Counter, Perkin Elmer). The tissue radioactivity data were expressed as % injected dose per gram of tissue (%ID/g). […]

- radioactivity in the kidneys [2]: ~ 39 %ID/g
Substance: aqaYS KAQKAQAKQAKQAQKAQKAQAKQAKQ [^aqap5, 31-residue p5 variant with three D-amino acids at the N-terminus; tested 125I-labeled in vivo]
- half maximal value of the heparin-mediated transition in mean residue ellipticity at 222 nm [1]: 0.33 mg
